Marks after values point to notes of the source that are not given here.
What was measured:
patients with BPH [1] = test: Intraprostatic injection in patients with BPH: difference from baseline International Prostate Symptom Score (Mean IPSS Improvement); type: in vivo, men
Procedure: (§1) In a study of 978 men, patients with BPH were given an intraprostatic injection of either a) DRUG in phosphate buffered saline pH 7.2 (“PBS”) or b) PBS alone, under double-blind conditions by a urologist in an office setting under ultrasound guidance. Each patient was followed for one year or longer with regular physical examinations, laboratory tests, and evaluations of symptoms. Symptomatic evaluation was measured by the International Prostate Symptom Score (IPSS) which is a quantitative scale used to gauge prostatic symptomatic improvement or worsening. The IPSS quantifies the following: 1) incomplete bladder emptying after urination; 2) frequent urination; 3) stopping and starting during urination; 4) urgent need to urinate; 5) weakness of urinary stream; 6) need to push or strain during urination; 7) need to urinate after going to sleep at night (nocturia). The difference from baseline IPSS was compared in patients who were given DRUG vs patients who received PBS alone. Patients who had no previous history of conventional drug treatment (“treatment naïve”) were compared to patients who had previously failed on other conventional approved drugs such as alpha blockers or 5-alpha reductase inhibitors.
Patients with BPH were given an intraprostatic injection of either a) DRUG in phosphate buffered saline pH 7.2 (“PBS”) or b) PBS alone, under double-blind conditions by a urologist in an office setting under ultrasound guidance. Each patient was followed for one year or longer with regular physical examinations, laboratory tests, and evaluations of symptoms. Symptomatic evaluation was measured by the International Prostate Symptom Score (IPSS) which is a quantitative scale used to gauge prostatic symptomatic improvement or worsening. The IPSS quantifies the following: 1) incomplete bladder emptying after urination; 2) frequent urination; 3) stopping and starting during urination; 4) urgent need to urinate; 5) weakness of urinary stream; 6) need to push or strain during urination; 7) need to urinate after going to sleep at night (nocturia). The difference from baseline IPSS was compared in patients who were given DRUG vs patients who received PBS alone. Patients who had both a) no previous history of conventional drug treatment (“treatment naïve”) and b) their BPH symptoms for <10 years, were compared to patients who had either a) previously failed on other conventional approved drugs such as alpha blockers or 5-alpha reductase inhibitors or b) had their BPH symptoms for >=10 years.
In a study of 978 men, patients with BPH were given an intraprostatic injection of either a) DRUG in phosphate buffered saline pH 7.2 (“PBS”) or b) PBS alone, under double-blind conditions by a urologist in an office setting under ultrasound guidance. Each patient was followed for one year or longer with regular physical examinations, laboratory tests, and evaluations of symptoms. Symptomatic evaluation was measured by the International Prostate Symptom Score (IPSS) which is a quantitative scale used to gauge prostatic symptomatic improvement or worsening. The IPSS quantifies the following: 1) incomplete bladder emptying after urination; 2) frequent urination; 3) stopping and starting during urination; 4) urgent need to urinate; 5) weakness of urinary stream; 6) need to push or strain during urination; 7) need to urinate after going to sleep at night (nocturia). The difference from baseline IPSS at an average of 22 months after treatment was compared in patients who were given DRUG vs patients who received PBS alone. Patients who were followed for only 12 months were imputed a change from 12 months onward equal to the mean of their group. Patients who had no previous history of conventional drug treatment (“treatment naïve”) were compared to patients who had previously failed on other conventional approved drugs such as alpha blockers or 5-alpha reductase inhibitors. […]

patients with BPH [2] = test: Intraprostatic injection in patients with BPH: proportion of patients worsening by IPSS; type: in vivo, men; parameters: decrease in the proportion of patients worsening over time, compared to the control: concentration or dose not given beside the values
Procedure: as §1
Patients with BPH were given an intraprostatic injection of either a) DRUG in phosphate buffered saline pH 7.2 (“PBS”) or b) PBS alone, under double-blind conditions by a urologist in an office setting under ultrasound guidance. Each patient was followed for one year with regular physical examinations, laboratory tests, and evaluations of symptoms. Symptomatic evaluation was measured by the International Prostate Symptom Score (IPSS) which is a quantitative scale used to gauge prostatic symptomatic improvement or worsening. The IPSS quantifies the following: 1) incomplete bladder emptying after urination; 2) frequent urination; 3) stopping and starting during urination; 4) urgent need to urinate; 5) weakness of urinary stream; 6) need to push or strain during urination; 7) need to urinate after going to sleep at night (nocturia). The difference from baseline IPSS was compared in patients who were given DRUG vs patients who received PBS alone. Previous treatment naive patients who had BPH history <10 years were compared to patients with previous treatment failure and to patients with BPH history >=10 years.

Substance: DRUG: NTP peptide given by intraprostatic injection in PBS pH 7.2; sequence not stated in the examples, probably SEQ ID NO. 66 (IDQQVLSRIKLEIKRCL)
- improvement of patients symptomatic for less than 10 years compared to patients symptomatic for more than 10 years (patients with BPH [1]; 12 months (Example 5)): about 40.9%
- improvement in treatment naive patients compared to the improvement found in treatment failure patients (patients with BPH [1]; 90 days (Example 1)): ~1,700%
- increase in treatment naive patients compared to the improvement found in treatment failure patients (patients with BPH [1]; 90 days (Example 1)): 16.7 fold
- Mean IPSS Improvement (patients with BPH [1]; duration of BPH symptoms <10 years, 12 months after treatment): 6.2*
- Mean IPSS Improvement (patients with BPH [1]; duration of BPH symptoms ≧10 years, 12 months after treatment): 4.4
- improvement compared to previously treated patients receiving the same drug (patients with BPH [1]; naive <10 years vs previously treated with symptoms for more than 10 years, 22 months (Example 4)): about 61.7%
- improvement compared to previously treated patients receiving the same drug (patients with BPH [1]; naive <10 years vs previously treated with symptoms for more than 10 years, 90 days (Example 2)): about 39.7%
- improvement compared to previously treated patients receiving the same drug (patients with BPH [1]; naive <10 years vs previously treated, worded 'symptoms for less than 10 years', 22 months (Example 4)): 48.6%
- improvement compared to previously treated patients receiving the same drug (patients with BPH [1]; naive <10 years vs previously treated, worded 'symptoms for less than 10 years', 90 days (Example 2)): 35.4%
- Mean IPSS Improvement when compared to the control (patients with BPH [1]; naive patients vs PBS, 22 months (Example 3)): about 52.9%
- Mean IPSS Improvement when compared to the control (patients with BPH [1]; naive patients vs PBS, 90 days (Example 1)): about 26.5%
- Mean IPSS Improvement when compared to the control (patients with BPH [1]; naive patients, BPH symptoms <10 years, vs PBS, after 22 months (Example 4)): about 61.7%
- Mean IPSS Improvement (patients with BPH [1]; no previous treatment (treatment naive), 90 days after treatment): 8.6*
- Mean IPSS Improvement (patients with BPH [1]; previous BPH treatment (treatment failure), 90 days after treatment): 6.5
- Mean IPSS Improvement (patients with BPH [1]; treatment failure and duration of BPH symptoms ≧10 years, 22 months after treatment): 3.4
- Mean IPSS Improvement (patients with BPH [1]; treatment failure and duration of BPH symptoms ≧10 years, 90 days after treatment): 6.3
- Mean IPSS Improvement when compared to the control (patients with BPH [1]; treatment failure patients vs PBS, 90 days (Example 1)): about 1.5%
- Mean IPSS Improvement (patients with BPH [1]; treatment failure, 22 months after treatment): 3.7
- Mean IPSS Improvement (patients with BPH [1]; treatment naive and duration of BPH symptoms <10 years, 22 months after treatment): 5.5*
- Mean IPSS Improvement (patients with BPH [1]; treatment naive and duration of BPH symptoms <10 years, 90 days after treatment): 8.8*
- Mean IPSS Improvement (patients with BPH [1]; treatment naive, 22 months after treatment): 5.2*
- improvement in proportion of patients worsening, treatment naive compared to treatment failure patients (patients with BPH [2]; 12 months (Example 6)): 4.15 fold
- reduction of the proportion of patients worsening, treatment naive compared to treatment failure patients (patients with BPH [2]; 12 months (Example 6)): ~420%
- Proportion of patients worsening (patients with BPH [2]; IPSS >0 at 12 months, treatment naive): 0.097*
- decrease in the proportion of patients worsening over time, treatment naive compared to treatment failure patients (patients with BPH [2]; IPSS >0 at one year (Example 7)): about 55.6%
- Proportion of patients worsening (patients with BPH [2]; IPSS >0 at one year, BPH history ≧10 years): .20
- Proportion of patients worsening (patients with BPH [2]; IPSS >0 at one year, treatment naive and BPH symptoms <10 years): .08
- decrease in the proportion of patients worsening over time, treatment naive compared to treatment failure patients (patients with BPH [2]; IPSS >1 at one year (Example 7)): ~50%
- Proportion of patients worsening (patients with BPH [2]; IPSS >1 at one year, BPH history ≧10 years): .13
- Proportion of patients worsening (patients with BPH [2]; IPSS >1 at one year, treatment failure): .12
- Proportion of patients worsening (patients with BPH [2]; IPSS >1 at one year, treatment naive and BPH symptoms <10 years): .06
- decrease in the proportion of patients worsening over time, treatment naive compared to treatment failure patients (patients with BPH [2]; IPSS >2 at one year (Example 7)): ~50%
- Proportion of patients worsening (patients with BPH [2]; IPSS >2 at one year, BPH history ≧10 years): .10
- Proportion of patients worsening (patients with BPH [2]; IPSS >2 at one year, treatment failure): .08
- Proportion of patients worsening (patients with BPH [2]; IPSS >2 at one year, treatment naive and BPH symptoms <10 years): .04***
- decrease in the proportion of patients worsening over time, compared to the control (patients with BPH [2]; history of BPH for more than 10 years, IPSS >0 at one year (Example 7)): about 4.7%
- decrease in the proportion of patients worsening over time, compared to the control (patients with BPH [2]; history of BPH for more than 10 years, IPSS >1 at one year (Example 7)): ~18.8%
- decrease in the proportion of patients worsening over time, compared to the control (patients with BPH [2]; history of BPH for more than 10 years, IPSS >2 at one year (Example 7)): ~16.7%
- decrease in the proportion of patients worsening over time, compared to the control (patients with BPH [2]; naive patients <10 years, IPSS >0 at one year (Example 7)): about 61.9%
- decrease in the proportion of patients worsening over time, compared to the control (patients with BPH [2]; naive patients <10 years, IPSS >1 at one year (Example 7)): ~62.5%
- decrease in the proportion of patients worsening over time, compared to the control (patients with BPH [2]; naive patients <10 years, IPSS >2 at one year (Example 7)): ~66.7%
- decrease in the proportion of patients worsening over time, compared to the control (patients with BPH [2]; naive patients, IPSS >0 at 12 months (Example 6)): about 51.5%
- decrease in the proportion of patients worsening over time, compared to the control (patients with BPH [2]; treatment failure patients, IPSS >0 at 12 months (Example 6)): about 10%
- decrease in the proportion of patients worsening over time, compared to the control (patients with BPH [2]; treatment failure patients, IPSS >0 at one year (Example 7)): about 14.3%
- decrease in the proportion of patients worsening over time, compared to the control (patients with BPH [2]; treatment failure patients, IPSS >1 at one year (Example 7)): ~25%
- decrease in the proportion of patients worsening over time, compared to the control (patients with BPH [2]; treatment failure patients, IPSS >2 at one year (Example 7)): ~33.3%
